In publication PMC3894558, “Chemical signatures and new drug targets for gametocytocidal drug development” (Scientific Reports, 2014):
Where a name gives a salt, the structure may show the parent alone. Read-outs that look alike come from different tables or passages of the source.

Legend:
Type in all cases: cell-based, Plasmodium falciparum
[1] = system: P. falciparum HB3 gametocytes; assay: alamarBlue gametocyte viability assay, strain HB3
Experimental: (§1) Briefly, gametocyte cultures were set up at 0.1% parasitemia and on days 9–10 treated with 50 mM N-acetylglucosamine (NAG) to block further asexual growth. Stage III–V gametocytes were isolated by Percoll density gradient centrifugation on day 12 and returned to culture for 24 hrs before being used in the assay[9].
(§2) Briefly, 2.5 μl/well incomplete medium was dispensed into each well of 1,536-well plates using the Multidrop Combi followed by 23 nl compound transferring using the NX-TR Pintool (WAKO Scientific Solutions, San Diego, CA). Then, 2.5 μl/well of gametocytes was dispensed with a seeding density of 20,000 cells/well using the Multidrop Combi. The assay plates were incubated for 72 hrs at 37°C with 5% CO2.

[2] = system: P. falciparum 3D7 gametocytes; assay: alamarBlue gametocyte viability assay, strain 3D7; conditions: for IC50: 11 concentrations, 1:3 dilution; for Max Resp: DMSO set at 0%, 100 nM epoxomicin set at -100%
[3] = system: P. falciparum Dd2 gametocytes; assay: alamarBlue gametocyte viability assay, strain Dd2
Experimental: as §1, §2

[4] = strain profiling, 11 concentrations, 1:3 dilution, three times, read-out: HB3-gametocytes IC50
[5] = strain profiling, three times, read-out: 3D7-gametocytes IC50
[6] = strain profiling, 11 concentrations, 1:3 dilution, three times, read-out: Dd2-gametocytes IC50
[7] = Plasmodium falciparum, HB3, read-out: HB3-gametocytes IC50
[8] = Plasmodium falciparum, 3D7, strain profiling, three times, read-out: 3D7-gametocytes IC50
[9] = Plasmodium falciparum, DD2, read-out: Dd2-gametocytes IC50
[10] = Plasmodium falciparum, HB3, strain profiling, 11 concentrations, 1:3 dilution, three times, read-out: HB3-gametocytes IC50
[11] = Plasmodium falciparum, DD2, strain profiling, 11 concentrations, 1:3 dilution, three times, read-out: Dd2-gametocytes IC50
[12] = Malaria Box, stages III-V 3D7 gametocytes
[13] = Malaria Box, stages III-V 3D7 gametocytes, read-out: IC50

| Compound | Max Resp ([2]; Malaria Box) | Curve Class [2, 12] | IC50 [2, 12] | IC50 [2, 13] | also measured |
| --- | --- | --- | --- | --- | --- |
| Salinomycin monosodium |  |  |  |  | IC50 [1, 4]: 469 nM; IC50 [2, 5]: 194 nM; IC50 [3, 6]: 296 nM |
| CCN(CC)Cc1nccn1-c1ccc([N+](=O)[O-])cc1C(=O)c1ccccc1Cl [Nizofenone] |  |  |  |  | IC50 [1, 7]: 14800 nM; IC50 [2, 8]: 23500 nM; IC50 [3, 9]: 16600 nM |
| Cc1cc(NC2CCCCC2)nc(-n2nc(C)cc2C)n1 [CyPPA] |  |  |  |  | IC50 [1, 4]: 743 nM; IC50 [2, 5]: 469 nM; IC50 [3, 6]: 590 nM |
| OC(c1cc(C(F)(F)F)nc2c(C(F)(F)F)cccc12)C1CCCCN1 (stereo not drawn) [Mefloquine hydrochloride] |  |  |  |  | IC50 [1, 10]: 59 nM; IC50 [2, 8]: 74 nM; IC50 [3, 11]: 53 nM |
| Cl.Cl.Cl.Cl.Cl.Cl.N.N.N.N.N.N.N.N.N.N.N.N.N.N.[O-2].[O-2].[Ru+3].[Ru+3].[Ru+4] [Ruthenium red] |  |  |  |  | IC50 [1, 4]: 264 nM; IC50 [2, 5]: 935 nM; IC50 [3, 6]: 526 nM |
| COc1ccc2nc3cc(Cl)ccc3c(Nc3cc(CN4CCCC4)c(O)c(CN4CCCC4)c3)c2n1 [Pyronaridine] |  |  |  |  | IC50 [1, 10]: 2640 nM; IC50 [2, 8]: 1870 nM; IC50 [3, 11]: 6620 nM |
| CCN(CC)C(=S)SSC(=S)N(CC)CC [Disulfiram] |  |  |  |  | IC50 [1, 10]: 108 nM; IC50 [2, 8]: 96 nM; IC50 [3, 11]: 96 nM |
| COC(=O)C[C@](O)(CCCC(C)(C)O)C(=O)O[C@@H]1C(OC)=C[C@]23CCCN2CCc2cc4c(cc2[C@H]13)OCO4 [Omacetaxine mepesuccinate] |  |  |  |  | IC50 [1, 10]: 17 nM; IC50 [2, 8]: 59 nM; IC50 [3, 11]: 37 nM |
| c1ccc2c(c1)[I+]c1ccccc1-2 [Diphenyleneiodonium] |  |  |  |  | IC50 [1, 10]: 296 nM; IC50 [2, 8]: 132 nM; IC50 [3, 9]: 209 nM |
| CO[C@@H]1[C@@H](OC)[C@H](C)[C@@](O)(CC(=O)O)O[C@H]1[C@H](C)[C@H]1O[C@@]2(CC[C@@](C)([C@H]3CC[C@@](C)([C@@H]4O[C@@H]([C@H]5O[C@](C)(O)[C@H](C)C[C@@H]5C)C[C@@H]4O[C@@H]4C[C@H](OC)[C@@H](OC)[C@H](C)O4)O3)O2)C[C@H](O)[C@H]1C [Maduramicin ammonium] |  |  |  |  | IC50 [1, 10]: 12 nM; IC50 [2, 8]: 24 nM; IC50 [3, 11]: 37 nM |
| c1cnc2c(c1)ccc1cccnc12 [1,10-Phenanthroline] |  |  |  |  | IC50 [1, 10]: 1180 nM; IC50 ([2]; Plasmodium falciparum, 3D7, read-out: 3D7-gametocytes IC50, strain profiling, three times): 743 nM; IC50 [3, 11]: 1320 nM |
| CCN(CC)C(=S)SSC(=S)N(CC)CC [Tetraethylthiuram disulfide] |  |  |  |  | IC50 [1, 4]: 148 nM; IC50 [2, 5]: 96 nM; IC50 [3, 6]: 296 nM |
| CNc1ccc2oc(C[C@H]3O[C@@]4(CC[C@H]3C)O[C@H]([C@H](C)C(=O)c3ccc[nH]3)[C@H](C)C[C@H]4C)nc2c1C(=O)O [Calcimycin] |  |  |  |  | IC50 [1, 7]: 5900 nM; IC50 [2, 8]: 2640 nM; IC50 [3, 9]: 1660 nM |
| N=c1c2ccccc2nnn1-c1cccc(C(F)(F)F)c1 [MMV665923] | 14% | 4 | Inactive |  |  |
| c1ccc(-c2ccc(-c3nc4ccccc4[nH]3)cc2)cc1 [MMV665891] | 18% | 4 | Inactive |  |  |
| O=C(Cc1ccccc1)NC(c1ccc(Cl)cc1)c1c(O)ccc2ccccc12 (stereo not drawn) [MMV665972] | -62% | -2.2 |  | 29600 nM |  |
| COc1cccc(C=Cc2nc(=O)c3ccccc3o2)c1OC [MMV666693] | 19% | 4 | Inactive |  |  |
| CC(C)(C)c1ccc(C(=O)Nc2nc3ccccc3s2)cc1 [MMV142383] | -10% | 4 | Inactive |  |  |
| COc1cc(CNCCc2ccc(Cl)cc2)cc(OC)c1O [MMV128432] | -81% | -2.1 |  | 11800 nM |  |
| COc1ccc(-c2nc(NC(=O)CS(=O)(=O)c3ccc(F)cc3)sc2C)cc1 [MMV665915] | -44% | -2.2 | Inactive |  |  |
| O=C(NC1CCCC1)c1ccc(N2CCC(NCc3cccc(C(F)(F)F)c3)CC2)cc1 [MMV666070] | -47% | -2.2 | Inactive |  |  |
| Cc1ccc(Nc2nc(NCCO)c3ccccc3n2)cc1C [MMV001038] | -71% | -1.2 |  | 3320 nM |  |
| CCOc1ccc2c(c1)CN(Cc1ccc(Cl)cc1)CO2 [MMV000443] | -54% | -1.2 |  | 1320 nM |  |
| Clc1ccc2[nH]c3c(NCCCN4CCOCC4)ncnc3c2c1 [MMV006587] | -49% | -2.2 | Inactive |  |  |
| c1ccc(/C2=N/c3ccccc3/N=C(/c3ccccc3)c3ccccc32)cc1 [MMV007113] | -5% | 4 | Inactive |  |  |
| CCCN(CCC)CCCNC(=O)c1cc2c(-c3ccc(OC)c(OC)c3)nn(C)c2s1 [MMV000561] | -52% | -2.2 | Inactive |  |  |
| COc1ccc(Nc2cc(C)nc(NCc3ccccc3)n2)cc1 [MMV006825] | -74% | -2.2 |  | 23500 nM |  |

| Compound | Max Resp ([2]; Malaria Box) | Curve Class [2, 12] | IC50 [2, 12] | IC50 [2, 13] | also measured |
| --- | --- | --- | --- | --- | --- |
| CCOC(=O)c1c[nH]c2c(CC)cccc2c1=O [MMV498479] | 28% | 4 | Inactive |  |  |
| CC(=O)NCCc1nc2ccccc2n1Cc1ccc(C(C)C)cc1 [MMV007617] | -70% | -2.2 |  | 23500 nM |  |
| COc1ccc(-c2cc(=O)oc3c4c(ccc23)OCN(Cc2ccc(F)cc2)C4)cc1 [MMV000604] | -55% | -2.2 |  | 7430 nM |  |
| COc1ccc(C2=C(c3ccc(OC)cc3)C3(c4ccccc4)C(=O)C2(c2ccccc2)C2C(=O)N(c4ccc(C)cc4)C(=O)C23)cc1 (stereo not drawn) [MMV666101] | 1% | 4 | Inactive |  |  |
| COc1cccc(C(=O)NC(c2ccc(C)cc2)c2cc(Cl)c3cccnc3c2O)c1 (stereo not drawn) [MMV665969] | -76% | -2.2 |  | 11800 nM |  |
| CN(C)CCNc1cc(-c2ccccc2)nc2ccccc12 [MMV006704] | -79% | -2.2 |  | 29600 nM |  |
| Oc1c(C(Nc2ccccn2)c2cccc(Oc3ccccc3)c2)ccc2cccnc12 (stereo not drawn) [MMV665814] | -107% | -2.1 |  | 9350 nM |  |
| CCCCCCOC(=O)C1=C(C)NC(=O)NC1c1ccccc1F (stereo not drawn) [MMV007686] | -2% | 4 | Inactive |  |  |
| CN1CCN(c2nc(Nc3ccc(O)cc3)nc3ccccc23)CC1.Cl [MMV000986] | -93% | -1.1 |  | 6620 nM |  |
| CCOc1cc2c(cc1OCC)C(c1cc(Cl)c(O)c(OCC)c1)NCC2 (stereo not drawn) [MMV000481] | -81% | -1.1 |  | 5260 nM |  |
| CC(NCc1ccccc1)c1cc(Cl)ccc1O (stereo not drawn) [MMV665789] | -58% | -1.2 |  | 1320 nM |  |
| O=C(NNc1cc(N2CCCC2)nc(N2CCCC2)n1)c1ccccc1 [MMV396770] | -93% | -2.1 |  | 10500 nM |  |
| CCOc1cc2c(cc1OCC)C(c1cc(Cl)ccc1O)NCC2 (stereo not drawn) [MMV000478] | -76% | -1.2 |  | 4180 nM |  |
| CCCCNc1nc(NC(C)(C)C)nc(NC(C)(C)C)n1 [MMV665864] | -93% | -2.1 |  | 13200 nM |  |
| COc1ccc2c(c1)OC(O)(C(F)(F)C(F)(F)F)CC2=O (stereo not drawn) [MMV007839] | -23% | 4 | Inactive |  |  |
| COc1ccc(C2c3ccc4ccccc4c3Oc3ncn(CCCn4ccnc4)c(=N)c32)cc1OC (stereo not drawn) [MMV667490] | -79% | -1.1 |  | 4180 nM |  |
| Br.CCn1c2c(c(=N)c3c1CCC3)CCCC2 [MMV000340] | -49% | -2.2 | Inactive |  |  |
| COc1ccc(C(=O)C2CC2c2ccc(Cl)cc2)cc1 (stereo not drawn) [MMV665924] | -23% | 4 | Inactive |  |  |
| Cl.OC(CNCc1ccccc1)Cn1c2ccccc2c2ccccc21 (stereo not drawn) [MMV000839] | -97% | -1.1 |  | 8330 nM |  |
| COc1cc(-c2nc(-c3ccc(Sc4ccccc4)cc3)c(-c3ccccc3)[nH]2)cc(OC)c1O [MMV007273] | -62% | -2.2 |  | 29600 nM |  |
| CCCc1cc(O)c2c3c(c(=O)oc2c1)CN(C)CC3 [MMV665841] | -28% | -1.2 |  | 662 nM |  |
| Cc1cccc(Nc2nc(N)c3ccccc3n2)c1.Cl [MMV019110] | -65% | -2.2 |  | 18700 nM |  |
| COc1cc(C(=O)Nc2ccc(-c3nc4ccccc4[nH]3)cc2)cc(OC)c1OC [MMV665898] | -26% | 4 | Inactive |  |  |
| Cc1ccc(N2C3c4ccccc4N(S(=O)(=O)c4ccc(C)cc4)C2c2ccccc2N3S(=O)(=O)c2ccc(C)cc2)cc1 [MMV007160] | -3% | 4 | Inactive |  |  |
| O=C(Nc1ccc(-c2nc3cc4ccccc4cc3[nH]2)cc1)c1cccc(Br)c1 [MMV019241] | -32% | -2.4 | Inactive |  |  |
| COc1ccc(N2CCN(C(CNC(=O)C3CCCCC3)c3ccc4c(c3)OCO4)CC2)cc1 (stereo not drawn) [MMV019662] | -21% | 4 | Inactive |  |  |
